# Results published in paper PMC5471252, “Anti-leukemia activity of a Hsp70 inhibitor and its hybrid molecules” (Scientific Reports, 2017).
# Assays:
# [1] = tested on: caspase activity of HL-60 and K562 cells; experiment: Caspase activity assay with Ac-DEVD-pNA in cell lysates; assay type: cell-based, human; conditions: lysates of cells treated 24 h
# Protocol: Because Az inhibits the association of Hsp70 with Apaf-1, caspase associated proteolytic activities should increase in cells treated with Az. To determine whether this event occurs, caspase activities of HL-60 and K562 cells treated with Az were measured by using the colorimetric substrate, Ac-DEVD-pNA (pNA, p-nitroaniline). […] We also examined whether leukemia cells are protected from the effect of Az by ZVAD-FMK (benzyloxycarbonyl-Val-Ala-Asp(OMe) fluoromethyl ketone, a cell-permeable inhibitor of pan-caspases). HL-60 and K562 cells were pre-incubated with ZVAD-FMK for 3 h and subsequently exposed to Az.
# HL-60 and K562 cells treated with each compound for 24 h were lysed in a buffer containing 50 mM HEPES (pH 7.4), 5 mM CHAPS and 5 mM DTT. Assay buffer containing 20 mM HEPES (pH 7.4), 0.01% CHAPS, 5 mM DTT and 2 mM EDTA was added to cell lysates. Caspase activity was measured in the absence or presence of acetyl-DEVD-pNA (200 μM) (Sigma-Aldrich) by using a microplate reader (monitored at 405 nm).
# [2] = tested on: U937 cells; experiment: MTT assay, cell viability of U937 cells; assay type: cell-based; conditions: Homo sapiens, U-937, 48 h, mean ± s.d., n = 3, read-out: IC50 values of compounds for leukemia cells
# [3] = tested on: HL-60 and K562 cells; experiment: Flow cytometry, fluorescein-annexin V and PI staining; assay type: cell-based, human; conditions: 24 h; 10 µM Az, 10 µM GD or 4 µM Az-O3-GD
# Protocol: (§1) To determine whether Az promotes leukemia cell death via apoptosis, acute leukemia HL-60 and chronic leukemia K562 cells were independently incubated with Az. The treated cells were then exposed to a mixed solution of fluorescein-annexin V and propidium iodide (PI) and flow cytometry analysis was conducted. […] The size of the treated cells was also assessed by using flow cytometry. […] We also investigated if the mitochondrial membrane potential in cells treated with Az is disrupted. To test this possibility, HL-60 and K562 cells were exposed to Az and subsequently stained with a membrane potential sensitive JC-1 probe. […] This serves as another evidence for apoptosis induced by Az.
# HL-60 and K562 cells were incubated with each compound for 24 h in culture media. Cells were re-suspended with 500 μL binding buffer (10 mM HEPES, […] and 2.5 mM CaCl2, pH 7.5) and then incubated with the FITC-annexin V apoptosis detection kit with PI according to the protocol provided by the manufacturer. Flow cytometry was carried out by using a BD FACSVerse™ instrument (BD Biosciences) and the data were analyzed by using a FlowJo™ software (BD Biosciences).
# [4] = tested on: HL-60 and K562 cells; experiment: Flow cytometry, JC-1 mitochondrial membrane potential; assay type: cell-based, human; conditions: 24 h; 10 µM Az or 4 µM Az-O3-GD
# Protocol: as §1
# JC-1 staining: HL-60 and K562 cells were treated with each compound and then with 2.5 μg/mL JC-1 (Anaspec) in PBS for 15 min. Flow cytometry was conducted with a BD FACSVerse™ instrument (the red fluorescence signal: λex = 550 nm, λem = 600 nm; the green fluorescence signal: λex = 485 nm, λem = 535 nm) and the data were analyzed using a FlowJo™ software.
# [5] = tested on: AIF translocation in HL-60 and K562 cells; experiment: AIF translocation to the nucleus (western blot, immunocytochemistry); assay type: cell-based, human; conditions: 24 h; 2 μM for Az-O3-GD
# Excerpt: Apoptosis-inducing factor (AIF) is known to be translocated from the cytosol to the nucleus during caspase-independent apoptosis (Supplementary Fig. S8b)[39]. In addition, it is also known that Hsp70 interacts with AIF directly and this interacting event results in blocking translocation of AIF to the nucleus and, in turn, prevents caspase-independent apoptosis. Because of these phenomena, we tested if Az has an influence on AIF-mediated caspase-independent apoptosis. To probe this issue, HL-60 and K562 cells were exposed to Az and the levels of AIF in the cytosolic and nuclear fractions were then determined. AIF translocation to the nucleus was not observed in Az-treated cells, based on western blot analysis (Fig. 4d). Additional evidence to support this conclusion was obtained from immunocytochemical analysis of leukemia cells treated with Az (Fig. 4d).
# (§2) Western blot analysis. […] peroxidase-conjugated goat anti-rabbit IgG (1:2000, Santa Cruz Bio Technology) and goat anti-mouse IgG (1:2000, Santa Cruz Bio Technology) were used as the secondary antibodies. The blots were developed by using a West-ZOL® plus Western Blot Detection System (Intron Biotechnology Inc., South Korea). Western blot signals were analyzed by using a G:BOX Chemi Fluorescent & Chemiluminescent Imaging System.
# Immunocytochemistry. […] Cell images were analyzed using the ZEN 2011 software.
# [6] = tested on: HL-60 cells; experiment: MTT assay, cell viability of HL-60 cells; assay type: cell-based; conditions: Homo sapiens, 48 h, mean ± s.d., n = 3, read-out: IC50 values of compounds for leukemia cells
# [7] = tested on: human leukemia cells (HL-60, KG-1, THP-1, U937, Jurkat and K562 cells); experiment: MTT assay, all tested leukemia cells (summary statements); conditions: all tested leukemia cells, MTT, compared with Az, GD and imatinib
# Protocol: To assess anti-leukemia activity of Az, several human leukemia cells (HL-60 cells, acute myeloid leukemia; Jurkat cells, acute T-lymphocytic leukemia; KG-1 cells, acute myeloid leukemia; U937 cells, acute myeloid leukemia; THP-1 cells, acute monocytic leukemia; K562 cells, chronic myeloid leukemia) were incubated with Az for 48 h. […] An MTT assay was then performed to measure cell viabilities.
# Cells were exposed to each compound (a HCl salt form) at various concentrations for indicated time periods (24 or 48 h) in culture media. MTT assays were conducted according to known procedures. The absorbance at 570 nm was determined by employing a microplate reader (TECAN, Infinite® 200 PRO).
# [8] = tested on: KG-1 cells; experiment: MTT assay, cell viability of KG-1 cells; assay type: cell-based; conditions: Homo sapiens, 48 h, mean ± s.d., n = 3, read-out: IC50 values of compounds for leukemia cells
# [9] = tested on: K562 cells; experiment: MTT assay, cell viability of K562 cells; assay type: cell-based; conditions: Homo sapiens, 48 h, mean ± s.d., n = 3, read-out: IC50 values of compounds for leukemia cells
# [10] = tested on: THP-1 cells; experiment: MTT assay, cell viability of THP-1 cells; assay type: cell-based; conditions: Homo sapiens, 48 h, mean ± s.d., n = 3, read-out: IC50 values of compounds for leukemia cells
# [11] = tested on: Hsp70 level in HL-60 and K562 cells; experiment: Western blot of Hsp70 and Hsp90 levels; assay type: cell-based, human; conditions: cells treated 24 h
# Protocol: Because Az-O3-GD promotes caspase activation in leukemia cells, it was anticipated that procaspase-9, procaspase-3 and PARP would be cleaved in treated cells. To test this possibility, HL-60 and K562 cells were exposed to Az-O3-GD, along with Az and GD as controls and western blot analysis was then carried out. […] Although Az-O3-GD upregulates Hsp70, the presence of the Hsp70 inhibitor in this hybrid causes its cytotoxicity against leukemia cells to be higher than that of GD. Finally, we examined the effect of Az-O3-GD on AIF-mediated caspase-independent apoptosis. To this end, HL-60 and K562 cells were incubated with Az-O3-GD for 24 h.
# as §2
# [12] = tested on: Jurkat cells; experiment: MTT assay, cell viability of Jurkat cells; assay type: cell-based; conditions: Homo sapiens, 48 h, mean ± s.d., n = 3, read-out: IC50 values of compounds for leukemia cells
compound,measurement,setting,value
COc1ccc(-c2nc(-c3cc(C(F)(F)F)cc(C(F)(F)F)c3)n(Cc3ccc(C(=O)NCCCOCCOCCOCCCNC4=C5CC(C)CC(OC)C(O)C(C)C=C(C)C(OC(N)=O)C(OC)C=CC=C(C)C(=O)NC(=CC4=O)C5=O)cc3)c2-c2ccc(OC)cc2)cc1 (stereo not drawn) [Az-O3-GD],caspase activity of treated cells,[1],increase
same,IC50,[2],1120 ± 440 nM
same,"apoptosis, annexin V binding and PI uptake",[3],induces apoptosis
same,"mitochondrial membrane potential, JC-1 red fluorescence",[4],significant decrease in the intensity of red fluorescence from JC-1
same,AIF translocation to the nucleus,[5],does not elicit the translocation of AIF to the nucleus
same,IC50,[6],740 ± 270 nM
same,cytotoxicity relative to the individual inhibitors,[7],greatly enhanced cytotoxicities
same,IC50,[8],1310 ± 300 nM
same,IC50,[9],720 ± 260 nM
same,IC50,[10],620 ± 270 nM
same,translational level of Hsp70,[11],upregulation of Hsp70
same,IC50,[12],570 ± 180 nM
